Reference: ChEMBL document CHEMBL4321854, “Discovery of a First-in-Class Mitogen-Activated Protein Kinase Kinase 1/2 Degrader” (J Med Chem, 2019)
Activity calls are given as the source filed them. The rule behind the calls is not given here.

Experiments:
[1] = target: T1, von Hippel-Lindau disease tumor suppressor/Dual specificity mitogen-activated protein kinase kinase 1 (Homo sapiens) (UniProt Q02750+P40337); experiment: Protac activity against VHL/MEK1 in human HT-29 cells harboring with BRAF V600E variant assessed as degradation of MEK1 by measuring MEK1 protein level at 0.3 uM pretreated with VHL ligand, VH 032 for 2 hrs followed by incubation with compound for 10 hrs by Western blot analysis; format: cell-based
[2] = target: T1, von Hippel-Lindau disease tumor suppressor/Dual specificity mitogen-activated protein kinase kinase 1 (Homo sapiens); experiment: Protac activity against VHL/MEK1 in human SK-MEL-28 cells harboring with BRAF V600E variant assessed as degradation of MEK1 by measuring reduction in MEK1 protein level at 0.3 uM after 4 hrs by Western blot analysis relative to control; format: cell-based; design: scale not given: the % may be the effect or the level left
[3] = target: T1, von Hippel-Lindau disease tumor suppressor/Dual specificity mitogen-activated protein kinase kinase 1 (Homo sapiens); experiment: (§1) Protac activity against VHL/MEK1 in human HT-29 cells harboring with BRAF V600E variant assessed as degradation of MEK1 by measuring MEK1 protein level at 0.3 uM pretreated with MEK1/2 inhibitor, PD0325901 for 2 hrs followed by incubation with compound for 10 hrs by Western blot analysis; format: cell-based
[4] = target: T1, von Hippel-Lindau disease tumor suppressor/Dual specificity mitogen-activated protein kinase kinase 1 (Homo sapiens); experiment: Protac activity against VHL/MEK1 in human HT-29 cells harboring with BRAF V600E variant assessed as degradation of MEK1 by measuring reduction in MEK1 protein level at 0.1 uM after 10 hrs by LC-MS based Volcano plot analysis; format: cell-based
[5] = Maximum drug concentration in Swiss albino mouse plasma at 50 mg/kg, ip measured after 0.5 hrs by LC-MS/MS analysis; format: ADME, organism-based; design: dose 50 mg/kg, route intraperitoneal
[6] = target: T2, von Hippel-Lindau disease tumor suppressor/Dual specificity mitogen-activated protein kinase kinase 2 (Homo sapiens) (UniProt P36507+P40337); experiment: Protac activity against VHL/MEK2 in human SK-MEL-28 cells harboring with BRAF V600E variant assessed as degradation of MEK2 at 3 to 5 uM after 24 hrs by Western blot analysis; format: cell-based
SK-MEL-28 = experiment: Antiproliferative activity against human SK-MEL-28 cells assessed as reduction in cell growth after 3 days by MTT assay; format: functional
[7] = target: T1, von Hippel-Lindau disease tumor suppressor/Dual specificity mitogen-activated protein kinase kinase 1 (Homo sapiens); experiment: Protac activity against VHL/MEK1 in human HT-29 cells harboring with BRAF V600E variant assessed as degradation of MEK1 at 3 to 5 uM after 24 hrs by Western blot analysis; format: cell-based
[8] = target: T2, von Hippel-Lindau disease tumor suppressor/Dual specificity mitogen-activated protein kinase kinase 2 (Homo sapiens); experiment: Protac activity against VHL/MEK2 in human SK-MEL-28 cells harboring with BRAF V600E variant assessed as degradation of MEK2 by measuring reduction in MEK2 protein level at 0.3 uM after 24 hrs by Western blot analysis relative to control; format: cell-based; design: scale not given: the % may be the effect or the level left
[9] = target: T1, von Hippel-Lindau disease tumor suppressor/Dual specificity mitogen-activated protein kinase kinase 1 (Homo sapiens); experiment: Protac activity against VHL/MEK1 in human HT-29 cells harboring with BRAF V600E variant assessed as degradation of MEK1 by measuring reduction in MEK1 protein level at 0.5 uM after 24 hrs by Western blot analysis relative to control; format: cell-based; design: scale not given: the % may be the effect or the level left
[10] = target: T1, von Hippel-Lindau disease tumor suppressor/Dual specificity mitogen-activated protein kinase kinase 1 (Homo sapiens); experiment: Protac activity against VHL/MEK1 in human HT-29 cells harboring with BRAF V600E variant assessed as degradation of MEK1 at 0.1 to 0.3 uM by Western blot analysis; format: cell-based; settings: TDE = time-dependent effect
[11] = target: T1, von Hippel-Lindau disease tumor suppressor/Dual specificity mitogen-activated protein kinase kinase 1 (Homo sapiens); experiment: Protac activity against VHL/MEK1 in human SK-MEL-28 cells harboring with BRAF V600E variant assessed as degradation of MEK1 by measuring MEK1 protein level at 0.3 uM pretreated with proteasome inhibitor, MG-132 for 2 hrs followed by incubation with compound for 10 hrs by Western blot analysis; format: cell-based
[12] = target: T3, von Hippel-Lindau disease tumor suppressor/Dual specificity mitogen-activated protein kinase kinase 2/Dual specificity mitogen-activated protein kinase kinase 1 (Homo sapiens) (UniProt P36507+Q02750+P40337); experiment: Protac activity against VHL/MEK1/2 in human UACC257 cells harboring with BRAF V600E variant assessed as reduction in phosphorylation of MEK at S218/222 residues after 24 hrs by Western blot analysis; format: cell-based
[13] = target: T1, von Hippel-Lindau disease tumor suppressor/Dual specificity mitogen-activated protein kinase kinase 1 (Homo sapiens); experiment: (§2) Protac activity against VHL/MEK1 in human COLO205 cells harboring BRAF V600E variant assessed as degradation of MEK1 after 24 hrs by Western blot analysis; format: cell-based
[14] = target: von Hippel-Lindau disease tumor suppressor/Dual specificity mitogen-activated protein kinase kinase 1 (Homo sapiens, UniProt Q02750+P40337, V600E); experiment: as §2; format: cell-based
[15] = target: T2, von Hippel-Lindau disease tumor suppressor/Dual specificity mitogen-activated protein kinase kinase 2 (Homo sapiens); experiment: Protac activity against VHL/MEK2 in human HT-29 cells harboring with BRAF V600E variant assessed as degradation of MEK2 by measuring MEK2 protein level at 0.3 uM pretreated with MEK1/2 inhibitor, PD0325901 for 2 hrs followed by incubation with compound for 10 hrs by Western blot analysis; format: cell-based
[16] = target: T2, von Hippel-Lindau disease tumor suppressor/Dual specificity mitogen-activated protein kinase kinase 2 (Homo sapiens); experiment: Protac activity against VHL/MEK2 in human SK-MEL-28 cells harboring with BRAF V600E variant assessed as degradation of MEK2 by measuring reduction in MEK2 protein level at 0.1 to 0.3 uM after 2 hrs by Western blot analysis; format: cell-based
[17] = target: T1, von Hippel-Lindau disease tumor suppressor/Dual specificity mitogen-activated protein kinase kinase 1 (Homo sapiens); experiment: Protac activity against VHL/MEK1 in human COLO205 cells harboring with BRAF V600E variant assessed as degradation of MEK1 at 3 to 5 uM after 24 hrs by Western blot analysis; format: cell-based
[18] = target: T3, von Hippel-Lindau disease tumor suppressor/Dual specificity mitogen-activated protein kinase kinase 2/Dual specificity mitogen-activated protein kinase kinase 1 (Homo sapiens); experiment: Protac activity against VHL/MEK1/2 in human HT-29 cells harboring with BRAF V600E variant assessed as phosphorylation of ERK at T202/Y204 residues at 0.3 uM pretreated with MEK1/2 inhibitor, PD0325901 for 2 hrs followed by incubation with compound for 10 hrs by Western blot analysis; format: cell-based
[19] = target: T1, von Hippel-Lindau disease tumor suppressor/Dual specificity mitogen-activated protein kinase kinase 1 (Homo sapiens); experiment: as §1, with “NEDD8-activating enzyme” for “MEK1/2”, “MLN4924” for “PD0325901”; format: cell-based
[20] = Ratio of Plasma concentration in Swiss albino mouse at 50 mg/kg, ip measured after 8 hrs to GI50 for antiproliferative activity against human SK-MEL-28 cells; format: organism-based; settings: in vivo
[21] = Ratio of Plasma concentration in Swiss albino mouse at 50 mg/kg, ip measured after 8 hrs to GI50 for antiproliferative activity against human COLO205 cells; format: organism-based; settings: in vivo
[22] = target: T3, von Hippel-Lindau disease tumor suppressor/Dual specificity mitogen-activated protein kinase kinase 2/Dual specificity mitogen-activated protein kinase kinase 1 (Homo sapiens); experiment: Protac activity against VHL/MEK1/2 in human HT-29 cells harboring with BRAF V600E variant assessed as phosphorylation of ERK at T202/Y204 residues at 0.3 uM pretreated with proteasome inhibitor, MG-132 for 2 hrs followed by incubation with compound for 10 hrs by Western blot analysis; format: cell-based
[23] = target: T3, von Hippel-Lindau disease tumor suppressor/Dual specificity mitogen-activated protein kinase kinase 2/Dual specificity mitogen-activated protein kinase kinase 1 (Homo sapiens); experiment: Protac activity against VHL/MEK1/2 in human HT-29 cells harboring with BRAF V600E variant assessed as phosphorylation of MEK at S218/222 residues at 0.3 uM pretreated with VHL ligand, VH 032 for 2 hrs followed by incubation with compound for 10 hrs by Western blot analysis; format: cell-based
[24] = target: T1, von Hippel-Lindau disease tumor suppressor/Dual specificity mitogen-activated protein kinase kinase 1 (Homo sapiens); experiment: Protac activity against VHL/MEK1 in human SK-MEL-28 cells harboring with BRAF V600E variant assessed as degradation of MEK1 at 0.1 to 0.3 uM by Western blot analysis; format: cell-based; settings: TDE = time-dependent effect
[25] = target: T2, von Hippel-Lindau disease tumor suppressor/Dual specificity mitogen-activated protein kinase kinase 2 (Homo sapiens); experiment: Protac activity against VHL/MEK2 in human HT-29 cells harboring BRAF V600E variant assessed as degradation of MEK2 by measuring reduction in MEK2 protein level at 0.5 uM after 24 hrs by Western blot analysis relative to control; format: cell-based; design: scale not given: the % may be the effect or the level left

T1 sequence (P40337 whole entry, looked up): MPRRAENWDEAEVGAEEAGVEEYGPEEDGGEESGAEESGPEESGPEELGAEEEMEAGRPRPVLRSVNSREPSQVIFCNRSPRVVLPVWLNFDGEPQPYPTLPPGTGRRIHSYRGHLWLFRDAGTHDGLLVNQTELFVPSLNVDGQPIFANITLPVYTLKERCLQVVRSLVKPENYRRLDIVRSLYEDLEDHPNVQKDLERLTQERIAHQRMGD
T1 sequence (Q02750 whole entry, looked up): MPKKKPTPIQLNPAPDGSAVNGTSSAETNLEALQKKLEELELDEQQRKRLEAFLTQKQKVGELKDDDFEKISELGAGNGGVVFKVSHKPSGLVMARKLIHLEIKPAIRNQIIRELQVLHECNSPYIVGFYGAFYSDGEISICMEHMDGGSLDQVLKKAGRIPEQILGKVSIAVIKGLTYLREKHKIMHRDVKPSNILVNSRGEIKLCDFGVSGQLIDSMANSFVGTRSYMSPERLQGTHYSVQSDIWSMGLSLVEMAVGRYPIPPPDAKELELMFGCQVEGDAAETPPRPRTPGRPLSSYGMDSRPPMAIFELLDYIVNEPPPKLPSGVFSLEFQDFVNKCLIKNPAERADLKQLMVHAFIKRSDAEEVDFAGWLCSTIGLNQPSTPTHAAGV
T2 sequence (P36507 whole entry, looked up): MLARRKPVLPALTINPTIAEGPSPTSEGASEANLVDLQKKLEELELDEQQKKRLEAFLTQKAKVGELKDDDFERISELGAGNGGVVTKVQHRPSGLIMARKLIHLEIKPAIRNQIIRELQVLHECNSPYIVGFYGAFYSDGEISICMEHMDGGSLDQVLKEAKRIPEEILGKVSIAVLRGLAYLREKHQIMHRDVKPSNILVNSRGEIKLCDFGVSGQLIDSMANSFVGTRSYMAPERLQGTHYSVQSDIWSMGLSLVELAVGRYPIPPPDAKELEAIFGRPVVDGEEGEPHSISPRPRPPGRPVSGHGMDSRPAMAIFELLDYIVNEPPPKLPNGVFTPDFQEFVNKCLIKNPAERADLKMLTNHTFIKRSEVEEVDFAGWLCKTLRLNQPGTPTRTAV
T2 sequence (P40337 whole entry, looked up): as the sequence (P40337 whole entry, looked up) above
T3 sequence (P36507 whole entry, looked up): as the sequence (P36507 whole entry, looked up) above
T3 sequence (P40337 whole entry, looked up): as the sequence (P40337 whole entry, looked up) above
T3 sequence (Q02750 whole entry, looked up): as the sequence (Q02750 whole entry, looked up) above
von Hippel-Lindau disease tumor suppressor/Dual specificity mitogen-activated protein kinase kinase 1, sequence (P40337 whole entry, looked up, stated change not applied): as the sequence (P40337 whole entry, looked up) above
von Hippel-Lindau disease tumor suppressor/Dual specificity mitogen-activated protein kinase kinase 1, sequence (Q02750 whole entry, looked up, stated change not applied): as the sequence (Q02750 whole entry, looked up) above

In the case of `Cc1ncsc1-c1ccc([C@H](C)NC(=O)[C@@H]2C[C@@H](O)CN2C(=O)[C@@H](NC(=O)CCCCCCCCCCNCCCONC(=O)c2ccc(F)c(F)c2Nc2ccc(I)cc2F)C(C)(C)C)cc1`, the Activity [1] is reported as “inactive”, the Activity [2] is reported as over 50% and the Activity [3] is reported as “inactive”. The Activity [4] was “Active”, the Cmax [5] was 1400 nM and the Activity [6] was “Active”. For the same compound, the “growth inhibition (GI)” value (SK-MEL-28) was “Dose-dependent effect”, the GI50 (SK-MEL-28; SK-MEL-28, 72 h) was 83 nM and the Activity [7] was “Active”. The Activity [8] was over 90%, the Activity [9] was over 80% and the Activity [10] was “Tde”. For the same compound, the Activity [11] was “inactive”, the Activity [12] was “Dose-dependent effect” and the Activity [13] was “Dose-dependent effect”. For the same compound, the DC50 [14] was 18 nM, the Activity [15] was “inactive” and the Activity [16] was “Active”. For the same compound, the Activity [17] was “Active”, the Activity [18] was “inactive” and the Activity [19] was “inactive”. The Ratio [20] was 3 to 20, the Ratio [21] was 3 to 20 and the Activity [22] was “inactive”. The Activity [23] was “inactive”, the Activity [24] was “Tde” and the Activity [25] was over 80%.
